The source of these data is patent US20220363662A1, “COMPOUNDS AS LXR AGONISTS” (Integral Biosciences Privated Limited, priority 2021, published 2022).

The structures appear in SMILES notation. pEC50, pIC50: −log10 of the molar value.

A word on the pIC50: it is the IC50 on a negative log10 scale, so that one unit is a factor of ten. The pEC50 is the negative decadic logarithm of the EC50, by convention in mol/L.

For assay [1], the system named is A549. In words: Cell viability assay (resazurin) in A549. The settings on record: Homo sapiens, 96 hr exposure. The format is cell-based. Here is the method: (§1) HepG2 (ATCC® HB-8065™), hepatocellular carcinoma, A549 (ATCC® CCL-185™), lung epithelial carcinoma, MCF7 (ATCC® HTB-22™), mammary gland epithelial carcinoma, MDA-MB-231 (ATCC® HTB-26™), TNBC, MiaPaCa-2 (ATCC® CRL-1420™) & Panc-1 (ATCC® CRL-1469™), pancreatic epithelial carcinoma, HCT116 (ATCC® CCL-247™), colon epithelial carcinoma and U87MG (ATCC® HTB-14™), brain epithelial carcinoma cell lines respectively were seeded in the respective medium (DMEM, Cat #10569044 with 10% FBS, Cat #16000044; Gibco for HepG2, A549, MCF7, MDA-MB-231, MiaPaCa-2, Panc-1, HCT116 and MEM, Cat #11095080 with 10% FBS for U87MG). Cells were allowed to grow at 37° C. for 24 hr in 5% CO2 (culture conditions) in a Nuaire incubator (humidified). Serially diluted compounds (100 μl) were added to the culture plate 24 hr later and the cultures were further incubated in culture conditions for 96 hr. Experiment was terminated at the completion of 96 hr exposure to the drug by replacing the medium with 100 μl of 1 mM of resazurin (R7017; Sigma) prepared in culture medium and the plates were further incubated in culture conditions for 4 hr. Fluorescence was then measured using a multimodal plate reader (Biotek Synergy Neo) at an excitation wavelength of 535 nm and emission wavelength of 590 nm to obtain relative fluorescence units. Data analysis was done by subtracting the background fluorescence (only medium blank) value from each reading and then normalizing with the vehicle control (DMSO treated cells) to obtain percent survival/proliferation. Percent survival at different doses was used to calculate IC50 by fitting the curve to the “four-parameter variable slope logistic model” using Prism Graph Pad.

In assay [2] the test system is HCT116. The assay can be described thus: Cell viability assay (resazurin) in HCT116. The class given is cell-based. The following applies: Homo sapiens, HCT-116; 96 hr exposure. Here is the method:
as §1
On the technique in general: Alamar Blue is a resazurin reagent that responds to reducing activity.

The subject of assay [3] is MDA-MB-231. In words: Cell viability assay (resazurin) in MDA-MB-231. The class given is cell-based. The following applies: Homo sapiens, 96 hr exposure, read-out: MDA_MB-231 Cell IC50. Here is the method: as §1
Assay [4] deals with THP1. In words: Cell viability assay in THP1. The class given is cell-based. The settings on record: Homo sapiens, THP-1.
For assay [5], the target named is T1, LXR beta (Homo sapiens, UniProt P55055).
T1 construct: 5 μL of 4×LXR beta-LBD was added to each well (final concentration 5 nM); purchased Thermofisher PV4658
T1 sequence (P55055 222-460 limits assumed): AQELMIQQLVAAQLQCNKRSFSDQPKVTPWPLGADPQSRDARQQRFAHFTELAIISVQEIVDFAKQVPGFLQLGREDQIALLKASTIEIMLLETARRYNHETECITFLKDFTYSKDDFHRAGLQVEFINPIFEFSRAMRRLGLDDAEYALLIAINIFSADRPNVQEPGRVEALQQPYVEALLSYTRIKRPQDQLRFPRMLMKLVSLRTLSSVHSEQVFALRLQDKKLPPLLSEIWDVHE
The assay can be described thus: LXR beta agonist assay (Lanthascreen TR-FRET). The format is biochemical. The following applies: LXR beta-LBD 5 nM, read-out: LXR-β EC50. Here is the method:
EC50 values of compounds against LXR beta were determined at Integral BioSciences (India) using Lanthascreen TR-FRET (Thermofisher, Cat #PV4658). Assay was performed in a 20 μL final volume in a Black 384-well plate (Corning, Cat #4511). Dose response curve for the compounds were prepared in duplicates with starting concentration at 30 μM and a three-fold titration was performed. The reaction buffer consisted of TR-FRET Coregulator Buffer G. To the compound dilution, 5 μL of 4×LXR beta-LBD was added to each well (final concentration 5 nM). An equal volume (5 μL) containing 4×Fl-D22/Tb-anti GST antibody (final concentration 100 nM/10 nM) was added to initiate the enzyme reaction and the reaction was incubated for 60 min at 22° C. after which the plates were read using BioTek Plate reader for TR-FRET every hour up to 4 hours.
Analysis was done using the standard curve by non-linear regression, variable slope inhibitor curve fits (Graph-Pad Prism) and EC50's of compounds were determined wherever possible.
On the technique in general: TR-FRET usually uses a lanthanide donor and a delayed reading to cut background.

Assay [6] relates to HepG2. In words: Cell viability assay (resazurin) in HepG2. The class given is cell-based. The settings on record: Homo sapiens, 96 hr exposure. Here is the method:
as §1

Consider `CN(C)C(=O)c1ccc(NC2CN(C3CCN(C(=O)C4(c5ccccc5)CCC4)CC3)C2)cc1Cl` [Compound 1.48, 2-chloro-N,N-dimethyl-4-(1-(1-(1-phenylcyclobutanecarbonyl)piperidin-4-yl)azetidin-3-ylamino)benzamide], for which the negative-log IC50 (pIC50) in assay [1] is 4.70; in assay [2], 4.91; in assay [3], under 4.52; in assay [4], under 4.52.

As to `CN(C)C(=O)c1ccc(O[C@H]2CCN(C3CCN(C(=O)[C@](O)(c4ccccc4)C(F)(F)F)CC3)C2)cc1Cl` [Compound 1.76, 2-chloro-N,N-dimethyl-4-((S)-1-(1-((R)-3,3,3-trifluoro-2-hydroxy-2-phenylpropanoyl)piperidin-4-yl)pyrrolidin-3-yloxy)benzamide], the negative logarithm of the EC50 (pEC50) in assay [5] was under 4.53. For the same molecule, the negative logarithm of the IC50 (pIC50) in assay [6] is under 4.52.

For the molecule `CN(C)C(=O)c1ccc(N2CC3(CCN(C4CCN(C(=O)[C@](O)(c5ccccc5)C(F)(F)F)CC4)CC3)C2)cc1Cl` [Compound 1.75, 2-chloro-N,N-dimethyl-4-(7-(1-((R)-3,3,3-trifluoro-2-hydroxy-2-phenylpropanoyl)piperidin-4-yl)-2,7-diazaspiro[3.5]nonan-2-yl)benzamide], in assay [5], the pEC50 was under 4.52. Besides, the pIC50 in assay [6] was under 4.52.

`CN(C)C(=O)c1ccc(NC2CCN(C3CCN(C(=O)[C@](O)(c4ccccc4)C(F)(F)F)CC3)CC2)cc1Cl` [Compound 1.47, (R)-2-chloro-N,N-dimethyl-4-(1′-(3,3,3-trifluoro-2-hydroxy-2-phenylpropanoyl)-1,4′-bipiperidin-4-ylamino)benzamide]: the pEC50 in assay [5] is 5.54. The pIC50 in assay [1], in assay [2], in assay [3] and in assay [4] was under 4.52 throughout.

Turning to `CN(C)C(=O)c1ccc(NC2CN(C3CCN(C(=O)C4(c5ccc(F)cc5)CCC4)CC3)C2)cc1Cl` [Compound 1.49, 2-chloro-4-(1-(1-(1-(4-fluorophenyl)cyclobutanecarbonyl)piperidin-4-yl)azetidin-3-ylamino)-N,N-dimethylbenzamide], the negative logarithm of the EC50 (pEC50) in assay [5] is 4.80. For the same molecule, the negative logarithm of the IC50 (pIC50) is 4.82 in assay [1], 4.75 in assay [2], 4.83 in assay [3] and under 4.52 in assay [4].

As to `CN(C)C(=O)c1ccc(O[C@@H]2CCN(C3CCN(C(=O)[C@](O)(c4ccccc4)C(F)(F)F)CC3)C2)cc1Cl` [Compound 1.72, 2-chloro-N,N-dimethyl-4-((R)-1-(1-((R)-3,3,3-trifluoro-2-hydroxy-2-phenylpropanoyl)piperidin-4-yl)pyrrolidin-3-yloxy)benzamide], in assay [5], the pEC50 was 5.27. Further, the pIC50 in assay [6] was under 4.52.

Regarding `CC(C)C(O)(C(=O)N1CCC(N2CCC3(CC2)CN(c2ccc(C(=O)N(C)C)c(Cl)c2)C3)CC1)C(F)(F)F` (stereo not drawn) [Compound 1.78, 2-chloro-4-(7-(1-(2-hydroxy-3-methyl-2-(trifluoromethyl)butanoyl)piperidin-4-yl)-2,7-diazaspiro[3.5]nonan-2-yl)-N,N-dimethylbenzamide], the pEC50 in assay [5] is under 4.52. The pIC50 in assay [6] was under 4.52.

Regarding `CN(C)C(=O)c1ccc(N[C@@H]2CCCN(C3CCN(C(=O)[C@](O)(c4ccccc4)C(F)(F)F)CC3)C2)cc1Cl` [Compound 1.71, 2-chloro-N,N-dimethyl-4-((R)-1′-((R)-3,3,3-trifluoro-2-hydroxy-2-phenylpropanoyl)-1,4′-bipiperidin-3-ylamino)benzamide], the negative-log EC50 (pEC50) in assay [5] is 5.93. Also, the pIC50 in assay [6] was under 4.53.

For `CN(C)C(=O)c1ccc(-c2cncc(C3=CCN(S(=O)(=O)c4ccccc4Cl)CC3)c2)cc1Cl` [Compound 1.39, 2-chloro-4-(5-(1-(2-chlorophenylsulfonyl)-1,2,3,6-tetrahydropyridin-4-yl)pyridin-3-yl)-N,N-dimethylbenzamide], the pIC50 in assay [1], in assay [2], in assay [3] and in assay [4] was under 4.52 in each case.

With `CC(C)[C@@](O)(C(=O)N1CCC2(CC1)CN(C1CCN(c3ccc(C(=O)N(C)C)c(Cl)c3)CC1)C2)C(F)(F)F` (single isomer, unassigned) [Compound 1.73], the negative-log EC50 (pEC50) in assay [5] was 5.85. Also, the negative-log IC50 (pIC50) in assay [6] is under 4.52.

For the molecule `COc1cccc(C2(C(=O)N3CCC(N4CC(Nc5ccc(C(=O)N(C)C)c(Cl)c5)C4)CC3)CCCC2)c1` [Compound 1.67, 2-chloro-4-(1-(1-(1-(3-methoxyphenyl)cyclopentanecarbonyl)piperidin-4-yl)azetidin-3-ylamino)-N,N-dimethylbenzamide], in assay [5], the pEC50 was 6.00.

`CC(=O)N1CCN(C(=O)c2ccc(NC3CN(C4CCN(C(=O)C(O)(c5ccccc5)C(F)(F)F)CC4)C3)cc2Cl)CC1` (stereo not drawn) [Compound 1.103, 1-(4-(3-((4-(4-acetylpiperazine-1-carbonyl)-3-chlorophenyl)amino)azetidin-1-yl)piperidin-1-yl)-3,3,3-trifluoro-2-hydroxy-2-phenylpropan-1-one]: the pEC50 in assay [5] was under 4.52.

As for `CN(C)C(=O)c1c(Cl)cc(NC2CN(C3CCN(C(=O)[C@@](O)(c4ccccc4)C(F)(F)F)CC3)C2)cc1Cl` [Compound 1.123, (S)-2,6-dichloro-N,N-dimethyl-4-(1-(1-(3,3,3-trifluoro-2-hydroxy-2-phenylpropanoyl)piperidin-4-yl)azetidin-3-ylamino)benzamide], the pEC50 in assay [5] is under 4.57.

For `CN(C)C(=O)c1ccc(NC2CN(C3CCN(C(=O)[C@](O)(c4ccccc4)C(F)(F)F)CC3)C2)cc1F` (single isomer, unassigned) [Compound 1.86], the pEC50 in assay [5] was under 4.52.

With `CN(C)C(=O)c1ccc(C2=CCN(C3CC4(C3)CN(C(=O)C(O)(c3ccccc3)C(F)(F)F)C4)CC2)cc1Cl` (stereo not drawn) [Compound 1.127, 2-chloro-N,N-dimethyl-4-(1-(2-(3,3,3-trifluoro-2-hydroxy-2-phenylpropanoyl)-2-azaspiro[3.3]heptan-6-yl)-1,2,3,6-tetrahydropyridin-4-yl)benzamide], the negative logarithm of the EC50 (pEC50) in assay [5] was 5.40.

For `CN(C)C(=O)c1ccc(NC2CN(C3CCN(C(=O)C45CC6CC(CC(C6)C4)C5)CC3)C2)cc1Cl` [Compound 1.66, 4-({1-[1-(adamantane-1-carbonyl)piperidin-4-yl]azetidin-3-yl}amino)-2-chloro-N,N-dimethylbenzamide], the pEC50 in assay [5] is under 4.69.

In the case of `O=C(c1ccc(NC2CN(C3CCN(C(=O)C(O)(c4cccc(Cl)c4)C(F)(F)F)CC3)C2)cc1Cl)N1CCC(F)(F)C1` (stereo not drawn) [Compound 1.132, 1-(4-(3-((3-chloro-4-(3,3-difluoropyrrolidine-1-carbonyl)phenyl)amino)azetidin-1-yl)piperidin-1-yl)-2-(3-chlorophenyl)-3,3,3-trifluoro-2-hydroxypropan-1-one], in assay [5], the negative-log EC50 (pEC50) was 6.21.

Take `CN(C)C(=O)c1ccc(N2CCC(N3CC4(CCN(C(=O)[C@](O)(c5ccccc5)C(F)(F)F)CC4)C3)CC2)cc1Cl` [Compound 1.79, 2-chloro-N,N-dimethyl-4-(4-(7-((R)-3,3,3-trifluoro-2-hydroxy-2-phenylpropanoyl)-2,7-diazaspiro[3.5]nonan-2-yl)piperidin-1-yl)benzamide]: the pEC50 in assay [5] was 5.37. Moreover, in assay [6], the pIC50 was 4.57.
